From US8778923B2, “GLP-1 receptor modulators” (Receptos, Inc., priority 2011, dated 2014)
pEC50: −log10 of the molar value.

Target: T1, GLP-1R (Homo sapiens, UniProt P43220)
T1 construct: host or cells: CRE-bla CHO-K1
Assay: EC20 GLP-1(9-36) PAM cAMP assay: dose response of compound in the presence of fixed concentration of GLP-1(9-36)
Type: cell-based
Details: GLP-1R CRE-bla CHO-K1 cells, compound dose response in presence of fixed concentration of GLP-1(9-36)
Outline: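 Positive allosteric modulation read as cAMP rise: 12-point compound titration combined with a fixed EC20 level of GLP-1(9-36) on GLP-1R CHO-K1 cells, IBMX present, 30 min at 37 °C. Luminescent HitHunter signal converted to cAMP; nonlinear fit gave EC50 and Emax.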

T1 sequence (P43220 24-463): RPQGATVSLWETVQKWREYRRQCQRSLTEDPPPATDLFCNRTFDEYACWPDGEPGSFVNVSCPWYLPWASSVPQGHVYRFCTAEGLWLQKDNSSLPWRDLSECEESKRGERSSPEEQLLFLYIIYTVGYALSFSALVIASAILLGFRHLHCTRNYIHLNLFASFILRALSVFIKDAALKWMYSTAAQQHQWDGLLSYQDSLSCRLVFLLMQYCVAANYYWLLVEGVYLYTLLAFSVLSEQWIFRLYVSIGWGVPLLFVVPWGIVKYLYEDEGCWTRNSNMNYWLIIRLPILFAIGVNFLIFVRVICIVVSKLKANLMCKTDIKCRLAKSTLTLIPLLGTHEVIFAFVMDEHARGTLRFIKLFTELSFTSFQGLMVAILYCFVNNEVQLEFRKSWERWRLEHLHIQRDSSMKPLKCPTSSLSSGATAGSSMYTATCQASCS
T1 sequence (P01275 100-127 partner limits assumed): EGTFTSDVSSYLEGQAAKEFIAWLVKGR

Structure (SMILES) | pEC50
CC(C)(C)c1ccc(-c2cnc(-c3ccc(C[C@H](NC(=O)c4ccc(S(C)(=O)=O)cc4)C(=O)O)cc3)nc2)cc1 [Compound 159] | 5.60 to 6.10
CCc1ccc(C(=O)N[C@@H](Cc2ccc(-c3ncc(-c4ccc(C(C)(C)C)cc4)cn3)cc2)C(=O)O)cc1 [Compound 160] | 5.60 to 6.10
CC(C)c1ccc(C(=O)N[C@@H](Cc2ccc(-c3ncc(-c4ccc(C(C)(C)C)cc4)cn3)cc2)C(=O)O)cc1 [Compound 161] | 5.60 to 6.10
CC(C)Oc1ccc(C(=O)N[C@@H](Cc2ccc(-c3ncc(-c4ccc(C(C)(C)C)cc4)cn3)cc2)C(=O)O)cc1 [Compound 162] | 5.60 to 6.10
CC(C)Cc1ccc(C(=O)N[C@@H](Cc2ccc(-c3ncc(-c4ccc(C(C)(C)C)cc4)cn3)cc2)C(=O)O)cc1 [Compound 163] | 5.60 to 6.10
CCCc1ccc(C(=O)N[C@@H](Cc2ccc(-c3ncc(-c4ccc(C(C)(C)C)cc4)cn3)cc2)C(=O)O)cc1 [Compound 164] | 5.60 to 6.10
CC(C)(C)c1ccc(-c2cnc(-c3ccc(C[C@H](NC(=O)c4ccc(C(C)(C)C)s4)C(=O)O)cc3)nc2)cc1 [Compound 165] | 5.60 to 6.10
CCc1ccc(C(=O)N[C@@H](Cc2ccc(-c3ncc(-c4ccc(C(C)(C)C)cc4)cn3)cc2)C(=O)O)s1 [Compound 166] | 5.60 to 6.10
CC(C)n1cc(C(=O)N[C@@H](Cc2ccc(-c3ncc(-c4ccc(C(C)(C)C)cc4)cn3)cc2)C(=O)O)cn1 [Compound 167] | 5.60 to 6.10
CC(C)(C)c1ccc(-c2cnc(-c3ccc(C[C@H](NC(=O)c4cc(C(C)(C)C)n[nH]4)C(=O)O)cc3)nc2)cc1 [Compound 168] | 5.60 to 6.10
CC(C)(C)c1ccc(-c2cnc(-c3ccc(C[C@H](NC(=O)c4nnc(C(C)(C)C)s4)C(=O)O)cc3)nc2)cc1 [Compound 169] | 5.00 to 5.30
COc1ccc(C(=O)N[C@@H](Cc2ccc(-c3ncc(-c4ccc(C(C)(C)C)cc4)cn3)cc2)C(=O)O)cc1 [Compound 170] | 5.60 to 6.10
CCOc1ccc(C(=O)N[C@@H](Cc2ccc(-c3ncc(-c4ccc(C(C)(C)C)cc4)cn3)cc2)C(=O)O)cc1 [Compound 171] | 5.60 to 6.10
CC(C)(C)Cc1ccc(C(=O)N[C@@H](Cc2ccc(-c3ncc(-c4ccc(C(C)(C)C)cc4)cn3)cc2)C(=O)O)cc1 [Compound 172] | 5.60 to 6.10
CC(C)(C)c1ccc(-c2cnc(-c3ccc(C[C@H](NC(=O)c4ccc(OC(F)(F)F)cc4)C(=O)O)cc3)nc2)cc1 [Compound 173] | 5.60 to 6.10
CC(C)(C)c1ccc(-c2cnc(-c3ccc(C[C@H](NC(=O)c4ccc(C(F)(F)F)cc4)C(=O)O)cc3)nc2)cc1 [Compound 174] | > 6.10
CC(C)(C)c1ccc(-c2cnc(-c3ccc(C[C@H](NC(=O)c4ccc(O)cc4)C(=O)O)cc3)nc2)cc1 [Compound 175] | > 6.10
CC(=O)c1ccc(C(=O)N[C@@H](Cc2ccc(-c3ncc(-c4ccc(C(C)(C)C)cc4)cn3)cc2)C(=O)O)cc1 [Compound 176] | 5.00 to 5.30
CC(C)(C)c1ccc(-c2cnc(-c3ccc(C[C@H](NC(=O)c4ncc(C(C)(C)C)s4)C(=O)O)cc3)nc2)cc1 [Compound 177] | 5.60 to 6.10
CC(C)(C)c1ccc(-c2cnc(-c3ccc(C[C@H](NC(=O)c4cnn(C(C)(C)C)c4)C(=O)O)cc3)nc2)cc1 [Compound 178] | 5.60 to 6.10

Structure (SMILES) | pEC50
CC(C)c1cc(C(=O)N[C@@H](Cc2ccc(-c3ncc(-c4ccc(C(C)(C)C)cc4)cn3)cc2)C(=O)O)cs1 [Compound 179] | 5.00 to 5.30
CC(C)c1ncc(C(=O)N[C@@H](Cc2ccc(-c3ncc(-c4ccc(C(C)(C)C)cc4)cn3)cc2)C(=O)O)s1 [Compound 180] | > 6.10
CC(C)S(=O)(=O)c1ccc(C(=O)N[C@@H](Cc2ccc(-c3ncc(-c4ccc(C(C)(C)C)cc4)cn3)cc2)C(=O)O)cc1 [Compound 181] | 5.60 to 6.10
CC(C)(C)c1ccc(-c2cnc(-c3ccc(C[C@@H](NC(=O)c4ccc(C(C)(C)C)s4)C(=O)O)cc3)nc2)cc1 [Compound 182] | 5.60 to 6.10
CCCCCCCOc1ccc(-c2cnc(-c3ccc(C[C@H](NC(=O)c4ccc(OS(C)(=O)=O)cc4)C(=O)O)cc3)nc2)cc1 [Compound 183] | 5.60 to 6.10
CCCCCCCOc1ccc(-c2cnc(-c3ccc(C[C@H](NS(=O)(=O)c4ccccc4)C(=O)O)cc3)nc2)cc1 [Compound 184] | 5.60 to 6.10
CCCCCCCOc1ccc(-c2cnc(-c3ccc(C[C@H](NS(=O)(=O)c4ccc(Cl)cc4)C(=O)O)cc3)nc2)cc1 [Compound 185] | 5.60 to 6.10
CCCCCCCOc1ccc(-c2cnc(-c3ccc(C[C@H](NS(=O)(=O)c4ccc(OC)cc4)C(=O)O)cc3)nc2)cc1 [Compound 186] | 5.60 to 6.10
CCCCCCCOc1ccc(-c2cnc(-c3ccc(C[C@H](NS(=O)(=O)c4ccc(C)cc4)C(=O)O)cc3)nc2)cc1 [Compound 187] | 5.30 to 5.60
CCCCCCCOc1ccc(-c2cnc(-c3ccc(C[C@H](NS(=O)(=O)c4ccc(Cl)c(Cl)c4)C(=O)O)cc3)nc2)cc1 [Compound 188] | 5.30 to 5.60
CCCCCCCOc1ccc(-c2cnc(-c3ccc(C[C@H](NS(=O)(=O)c4ccc(OC(C)C)cc4)C(=O)O)cc3)nc2)cc1 [Compound 189] | 5.60 to 6.10
CCCCCCCOc1ccc(-c2cnc(-c3ccc(C[C@H](NS(=O)(=O)c4ccc(C(F)(F)F)cc4)C(=O)O)cc3)nc2)cc1 [Compound 190] | 5.30 to 5.60
CCCCCCCOc1ccc(-c2cnc(-c3ccc(C[C@H](NC(=O)c4ccc(C(C)(C)C)s4)C(=O)O)cc3)nc2)cc1 [Compound 192, (S)-2-(5-(tert-butyl)thiophene-2-carboxamido)-3-(4-(5-(4-(heptyloxy)phenyl)-pyrimidin-2-yl)phenyl)propanoic acid] | > 6.10
CCCCCCCOc1ccc(-c2cnc(-c3ccc(C[C@@H](NC(=O)c4ccc(C(C)(C)C)s4)C(=O)O)cc3)nc2)cc1 [Compound 193] | 5.60 to 6.10
CC(C)(C)c1ccc(C(=O)N[C@@H](Cc2ccc(-c3ncc(-c4ccc(N5CCCCC5)cc4)cn3)cc2)C(=O)O)cc1 [Compound 194] | 5.60 to 6.10
CC(C)c1ccc(-c2cnc(-c3ccc(C[C@H](NC(=O)c4ccc(C(C)(C)C)cc4)C(=O)O)cc3)nc2)cc1 [Compound 195] | 5.60 to 6.10
CC(C)(C)c1ccc(C(=O)N[C@@H](Cc2ccc(-c3ncc(-c4ccccc4)cn3)cc2)C(=O)O)cc1 [Compound 196] | 5.30 to 5.60
Cn1ccc2c(-c3cnc(-c4ccc(C[C@H](NC(=O)c5ccc(C(C)(C)C)cc5)C(=O)O)cc4)nc3)cccc21 [Compound 197] | 5.30 to 5.60
COc1ccc(-c2cnc(-c3ccc(C[C@H](NC(=O)c4ccc(C(C)(C)C)cc4)C(=O)O)cc3)nc2)cc1 [Compound 198] | 5.00 to 5.30
CC(C)(C)c1ccc(C(=O)N[C@@H](Cc2ccc(-c3ncc(-c4ccc(C(C)(C)C)cc4)cn3)cc2)C(=O)O)cc1 [Compound 199] | 5.60 to 6.10

Structure (SMILES) | pEC50
CC(C)Oc1ccc(-c2cnc(-c3ccc(C[C@H](NC(=O)c4ccc(C(C)(C)C)cc4)C(=O)O)cc3)nc2)cc1 [Compound 200] | 5.30 to 5.60
CN(C)c1ccc(-c2cnc(-c3ccc(C[C@H](NC(=O)c4ccc(C(C)(C)C)cc4)C(=O)O)cc3)nc2)cc1 [Compound 201] | 5.30 to 5.60
CN(C)c1cccc(-c2cnc(-c3ccc(C[C@H](NC(=O)c4ccc(C(C)(C)C)cc4)C(=O)O)cc3)nc2)c1 [Compound 202] | 5.00 to 5.30
Cc1ccc(-c2cnc(-c3ccc(C[C@H](NC(=O)c4ccc(C(C)(C)C)cc4)C(=O)O)cc3)nc2)cc1 [Compound 203] | 5.00 to 5.30
CC(C)(C)c1ccc(C(=O)N[C@@H](Cc2ccc(-c3ncc(-c4cccc(C(C)(C)C)c4)cn3)cc2)C(=O)O)cc1 [Compound 204] | 5.30 to 5.60
CC(C)(C)c1ccc(C(=O)N[C@@H](Cc2ccc(-c3ncc(-c4ccc(-c5ccccc5)cc4)cn3)cc2)C(=O)O)cc1 [Compound 205] | 5.60 to 6.10
CC(C)(C)c1ccc(C(=O)N[C@@H](Cc2ccc(-c3ncc(-c4ccc(F)cc4)cn3)cc2)C(=O)O)cc1 [Compound 206] | 5.30 to 5.60
CC(C)(C)c1ccc(C(=O)N[C@@H](Cc2ccc(-c3ncc(-c4cccc(F)c4)cn3)cc2)C(=O)O)cc1 [Compound 207] | 5.30 to 5.60
CC(C)(C)c1ccc(C(=O)N[C@@H](Cc2ccc(-c3ncc(-c4ccc(F)cc4F)cn3)cc2)C(=O)O)cc1 [Compound 208] | 5.30 to 5.60
CC(C)(C)c1ccc(C(=O)N[C@@H](Cc2ccc(-c3ncc(-c4ccc(C(F)(F)F)cc4)cn3)cc2)C(=O)O)cc1 [Compound 209] | 5.60 to 6.10
CC(C)(C)c1ccc(C(=O)N[C@@H](Cc2ccc(-c3ncc(-c4cccc(C(F)(F)F)c4)cn3)cc2)C(=O)O)cc1 [Compound 210] | 5.30 to 5.60
CC(C)(C)c1ccc(C(=O)N[C@@H](Cc2ccc(-c3ncc(-c4ccc(Cl)cc4)cn3)cc2)C(=O)O)cc1 [Compound 211] | 5.00 to 5.30
CC(C)(C)c1ccc(C(=O)N[C@@H](Cc2ccc(-c3ncc(-c4cccc(Cl)c4)cn3)cc2)C(=O)O)cc1 [Compound 212] | 5.00 to 5.30
CC(C)(C)c1ccc(C(=O)N[C@@H](Cc2ccc(-c3ncc(-c4ccc(Cl)c(Cl)c4)cn3)cc2)C(=O)O)cc1 [Compound 213] | 5.30 to 5.60
COc1ccc(-c2cnc(-c3ccc(C[C@H](NC(=O)c4ccc(C(C)(C)C)cc4)C(=O)O)cc3)nc2)cc1OC [Compound 214] | 5.30 to 5.60
COc1cccc(-c2cnc(-c3ccc(C[C@H](NC(=O)c4ccc(C(C)(C)C)cc4)C(=O)O)cc3)nc2)c1 [Compound 215] | 5.30 to 5.60
CC(C)(C)c1ccc(C(=O)N[C@@H](Cc2ccc(-c3ncc(-c4cccc(N5CCCCC5)c4)cn3)cc2)C(=O)O)cc1 [Compound 216] | 5.30 to 5.60
Cc1cccc(-c2cnc(-c3ccc(C[C@H](NC(=O)c4ccc(C(C)(C)C)cc4)C(=O)O)cc3)nc2)c1 [Compound 217] | 5.00 to 5.30
CC(C)(C)c1ccc(C(=O)N[C@@H](Cc2ccc(-c3ncc(-c4cccc(-c5ccccc5)c4)cn3)cc2)C(=O)O)cc1 [Compound 218] | 5.30 to 5.60
CCCCCCCOc1cccc(-c2cnc(-c3ccc(C[C@H](NC(=O)c4ccc(C(C)(C)C)cc4)C(=O)O)cc3)nc2)c1 [Compound 219] | 5.60 to 6.10
